One assay deals with HT-29. As to the kind of experiment: Cytotoxicity against human HT-29 cells by MTT assay. The assay is classed as functional, cell-based. On the technique in general: Tetrazolium assays rely on reduction of a dye to a coloured formazan, in cell work by metabolically active cells.
A further assay has as its system HCT-116. As to the kind of experiment: Cytotoxicity against human HCT116 cells by MTT assay. The assay is classed as functional, cell-based.

In the case of `C[C@@H]1CC[C@@]2(OC1)O[C@H]1C[C@H]3[C@@H]4CC=C5C[C@@H](O[C@@H]6O[C@H](CO)[C@@H](O)[C@H](O[C@@H]7O[C@@H](C)[C@H](O)[C@@H](O)[C@H]7O)[C@H]6O)CC[C@]5(C)[C@H]4CC[C@]3(C)[C@@]1(O)[C@@H]2C` [MANIOSIDE A], the IC50 was found to be 56.2 µM in the assay with HT-29 and 43 µM with HCT-116.
Taken in the same sequence, the figures for `C[C@@H]1CC[C@]2(OC1)O[C@H]1C[C@H]3[C@@H]4CC=C5C[C@@H](O[C@@H]6O[C@H](CO)[C@@H](O)[C@H](O[C@@H]7O[C@@H](C)[C@H](O)[C@@H](O)[C@H]7O)[C@H]6O[C@@H]6O[C@@H](C)[C@H](O)[C@@H](O)[C@H]6O)CC[C@]5(C)[C@H]4CC[C@]3(C)[C@@]1(O)[C@@H]2C` were 1.67 µM and 2.04 µM.
Take `C=C1CO[C@]2(O[C@H]3C[C@H]4[C@@H]5CC=C6C[C@@H](O)C[C@@H](O[C@@H]7O[C@H](C)[C@H](O)[C@H](O[C@@H]8O[C@@H](C)[C@H](O)[C@@H](O)[C@H]8O)[C@H]7O[C@@H]7OC[C@@H](O)[C@H](O)[C@H]7O)[C@]6(C)[C@H]5CC[C@]4(C)[C@H]3[C@@H]2C)[C@@H](O)[C@H]1O[C@@H]1OC[C@H](O)[C@H](O)[C@H]1O` [DEISTELIANOSIDE B]: the IC50 in the assay on HT-29 came out at 70.7 µM; in the assay with HCT-116, 21.2 µM.
As for `C[C@@H]1O[C@@H](O[C@H]2[C@H](O[C@H]3CC[C@@]4(C)C(=CC[C@@H]5[C@@H]4CC[C@@]4(C)[C@H]5C[C@@H]5O[C@@]6(C[C@@H](O)[C@@H](C)CO6)[C@@H](C)[C@@]54O)C3)O[C@H](CO)[C@@H](O)[C@@H]2O[C@@H]2O[C@@H](C)[C@H](O)[C@@H](O)[C@H]2O)[C@H](O)[C@H](O)[C@H]1O` [ARBOREASAPONIN B], the IC50 in the assay on HT-29 and in the assay with HCT-116 was 100 µM in each case.
In the case of `CC(=O)OC[C@H]1O[C@@H](O[C@H]2CC[C@@]3(C)C(=CC[C@@H]4[C@@H]3CC[C@@]3(C)[C@H]4C[C@@H]4O[C@@]5(CC[C@@H](C)CO5)[C@@H](C)[C@@]43O)C2)[C@H](O[C@@H]2O[C@@H](C)[C@H](O)[C@@H](O)[C@H]2O)[C@@H](O[C@@H]2O[C@@H](C)[C@H](O)[C@@H](O)[C@H]2O)[C@@H]1O` [ARBOREASAPONIN A], the results for the IC50 in the assay with HT-29 and in the assay on HCT-116 were 8.54 µM and 7.6 µM, respectively.
`C=C1CO[C@@]2(O[C@H]3C[C@H]4[C@@H]5CC=C6C[C@@H](O)C[C@@H](O[C@@H]7OC[C@H](O)[C@H](O[C@@H]8OC[C@@H](O)[C@H](O)[C@H]8O[C@@H]8O[C@@H](C)[C@H](O)[C@@H](O)[C@H]8O)[C@H]7O)[C@]6(C)[C@H]5CC[C@]4(C)[C@H]3[C@@H]2C)[C@@H](O)[C@H]1O[C@@H]1OC[C@H](O)[C@H](O)[C@H]1O`: the IC50 is 29.5 µM with HT-29 and 29 µM in the assay with HCT-116.
`CC(=O)O[C@H]1C(=O)[C@@]2(C)[C@H]([C@H](OC(=O)c3ccccc3)[C@]3(O)C[C@H](OC(=O)[C@H](O)[C@@H](NC(=O)c4ccccc4)c4ccccc4)C(C)=C1C3(C)C)[C@]1(OC(C)=O)CO[C@@H]1C[C@@H]2O` [PACLITAXEL]: the results for the IC50 with HT-29 and with HCT-116 were 0.0014 µM and 0.00321 µM, respectively.

The term IC50 denotes the point on the concentration scale where inhibition reaches its midpoint. High values mean weaker potency, low ones greater potency.

Source of the values: ChEMBL document CHEMBL1177740, “Steroidal saponins from two species of Dracaena” (J Nat Prod, 2010).
